Test results published in patent US20180222836A1, “Process for the Preparation of Pharmaceutical Grade Ferric Citrate” (Lupin Limited, priority 2015, published 2018).

Test: BET active specific surface area (U.S. Pharmacopeia General Chapter <846>)
Format: physicochemical
Settings: pharmaceutical grade ferric citrate, dried powder from one-pot process
Procedure: According to the present invention, the pharmaceutical grade ferric citrate having BET surface area in the range of […]. the method of analysis for BET surface are of the ferric citrate is performed as per U.S. Pharmacopeia General Chapter <846>.

Substance	BET Active Specific Surface Area [m^2/gm]
ferric citrate [EXAMPLE-1]	6.51
ferric citrate [EXAMPLE-2]	6.47
